{
  "source": "paper PMC10077444",
  "about": "“Evaluation of In Vivo Biological Activity Profiles of Isoindole-1,3-dione Derivatives: Cytotoxicity, Toxicology, and Histopathology Studies” (ACS Omega, 2023)",
  "key": {"CD1 mice [1]": {"tested_on": "CD1 mice", "settings": "in vivo"}, "[2]": {"assay": "Weight and survival of tumor-bearing nude mice during and after treatment", "assay_type": "in vivo", "settings": "for weight of nude mice: individual mice (1)-(5); for survival of tumor-bearing nude mice: five mice per group, observed for 60 days", "protocol": "Male atypical nude mice, 6–8 weeks old, were used for in vivo xenograft tumor models. […] For the purpose of xenograft administration, nude mice were injected subcutaneously with 100 μL of 5 × 10^6 A549-Luc cell suspension. The presence of cancer after cell administration to nude mice was followed by imaging with an IVIS device. In order to monitor tumor formation and tumor volume detection, luciferin [Biovision Inc., USA; 12 mg/mL in phosphate-buffered saline (PBS)] was injected intraperitoneally followed by visualization with IVIS 5 min later. When tumor volume reaches about 2000 mm^3, cancerous nudes are divided into three groups: the control group, 3 group, and 4 group. Grouping was made as 3–5 animals in each group. The following procedures were prepared according to the groups, and then they were implemented. In addition, the weights of nude mice were regularly checked and recorded.\nMale atypical nude mice aged 6–8 weeks are commonly used in in vivo xenograft tumor models. A549-luc lung cancer cells were injected into nude mice in all three groups, and tumor growth was induced with a xenograft model. For xenograft administration, 100 μL of 5 × 10^6 A549-luc cell suspension was injected subcutaneously into nude mice. After cell application to nude mice, it was determined whether there was cancer or not by imaging with the IVIS device. After the cancer groups were formed, the treatment phase was started. […] Each prepared sample was given to the animals by tail vein administration, three doses (as described in Section 2.3) per week, and the IVIS images taken at 5 min after luciferin (200 μL of 12 mg/mL stock administered subcutaneously) at certain time intervals were evaluated."}, "[3]": {"assay": "28 day subacute toxicity study, weight change"}, "CD1 mice [4]": {"tested_on": "CD1 mice", "assay": "Acute toxicity study", "assay_type": "in vivo", "settings": "200 μM, 100 μL intravenously once, 2 females and 2 males, 14 days"}, "HeLa cell lines": {"tested_on": "HeLa cell lines", "design": "method as in PMID 31759659", "settings": "48 h; cited from earlier work"}, "[5]": {"settings": "3 days, 200 μM, 20 μL tail vein, three doses a week, in g (unit assumed)"}, "[6]": {"settings": "7 days, 200 μM, 20 μL tail vein, three doses a week, in g (unit assumed)"}, "[7]": {"settings": "10 days, 200 μM, 20 μL tail vein, three doses a week, in g (unit assumed)"}, "[8]": {"settings": "15 days, 200 μM, 20 μL tail vein, three doses a week, in g (unit assumed)"}, "[9]": {"settings": "200 μM, 20 μL tail vein, three doses a week"}, "[10]": {"settings": "initially, 200 μM in DMSO, 20 μL tail vein, three doses a week, in g (unit assumed)"}},
  "note": "Where “and” joins values, the source holds several entries; their conditions need not be identical. Equal values may be shown once. Entries after “also recorded” stand apart in the source; their conditions may differ.",
  "data": [
    {"molecule": "CC(=O)O[C@H]1C=C[C@H](OC(C)=O)[C@H]2C(=O)N(Cc3ccccc3)C(=O)[C@H]21", "note": "[compound 3]", "values": [
      {"measurement": "cardiac muscle: increase in the connective tissue between the muscle fibers", "setting": "CD1 mice [1]; both, CD1, mouse, 28 day", "value": "higher level compared to the 4 groups"},
      {"measurement": "cardiac muscle: discus intercalaris", "setting": "CD1 mice [1]; mouse", "value": "moderate/high level of erasure"},
      {"measurement": "kidney: severity of histopathological findings, compounds compared", "setting": "CD1 mice [1]; mouse", "value": "more severe"},
      {"measurement": "liver: severity of histopathological findings, compounds compared", "setting": "CD1 mice [1]; mouse", "value": "more severe"},
      {"measurement": "weight of nude mice", "setting": "[2]; [5]", "value": "26.25 and 24.90 and 23.54 and 27.20"},
      {"measurement": "weight of nude mice", "setting": "[2]; [6]", "value": "28.50 and 25.42 and 24.87 and 29.26 and 30.77"},
      {"measurement": "weight of nude mice", "setting": "[2]; [7]", "value": "28.52 and 25.98 and 25.89 and 30.26 and 32.07"},
      {"measurement": "weight of nude mice", "setting": "[2]; [8]", "value": "31.02 and 28.50 and 26.43 and 32.30 and 33.71"},
      {"measurement": "weight of nude mice", "setting": "[2]; 20 days, Ex = dead, in g (unit assumed)", "value": "32.60 and 30.60 and 28.70 and 33.78 and 36.05"},
      {"measurement": "weight of nude mice", "setting": "[2]; 30 days, Ex = dead, in g (unit assumed)", "value": "30.90 and 29.40 and 32.96 and 34.86"},
      {"measurement": "weight of nude mice", "setting": "[2]; 40 days, treatment discontinued on day 30, Ex = dead, in g (unit assumed)", "value": "30.81 and 31.30 and 30.31 and 32.30 and 34.31"},
      {"measurement": "weight of nude mice", "setting": "[2]; 50 days, treatment discontinued on day 30, Ex = dead, in g (unit assumed)", "value": "30.91 and 33.40 and 31.25 and 33.12 and 34.65"},
      {"measurement": "weight of nude mice", "setting": "[2]; 60 days, treatment discontinued on day 30, Ex = dead, in g (unit assumed)", "value": "32.39 and 34.65 and 32.60 and 33.37 and 35.95"},
      {"measurement": "survival of tumor-bearing nude mice", "setting": "[2]; [9]", "value": "did not die; also recorded: survived for 60 days"},
      {"measurement": "weight of nude mice", "setting": "[2]; [10]", "value": "23.58 and 24.10 and 22.14 and 22.18 and 24.24"},
      {"measurement": "Weight, group average", "setting": "[3]; 1st dose (200 μM) female, 7d", "value": 26.732, "unit": "G"},
      {"measurement": "Weight, group average", "setting": "[3]; 1st dose (200 μM) female, 14d", "value": 27.624, "unit": "G"},
      {"measurement": "Weight, group average", "setting": "[3]; 1st dose (200 μM) female, 21d", "value": 26.9, "unit": "G"},
      {"measurement": "Weight, group average", "setting": "[3]; 1st dose (200 μM) female, 28d", "value": 26.61, "unit": "G"},
      {"measurement": "Weight, group average", "setting": "[3]; 1st dose (200 μM) female, initial", "value": 26.516, "unit": "G"},
      {"measurement": "Weight, group average", "setting": "[3]; 1st dose (200 μM) male, 7d", "value": 34.102, "unit": "G"},
      {"measurement": "Weight, group average", "setting": "[3]; 1st dose (200 μM) male, 14d", "value": 35.088, "unit": "G"},
      {"measurement": "Weight, group average", "setting": "[3]; 1st dose (200 μM) male, 21d", "value": 34.89, "unit": "G"},
      {"measurement": "Weight, group average", "setting": "[3]; 1st dose (200 μM) male, 28d", "value": 35.932, "unit": "G"},
      {"measurement": "Weight, group average", "setting": "[3]; 1st dose (200 μM) male, initial", "value": 33.35, "unit": "G"},
      {"measurement": "Weight, group average", "setting": "[3]; 2nd dose (100 μM) female, 7d", "value": 27.582, "unit": "G"},
      {"measurement": "Weight, group average", "setting": "[3]; 2nd dose (100 μM) female, 14d", "value": 27.204, "unit": "G"},
      {"measurement": "Weight, group average", "setting": "[3]; 2nd dose (100 μM) female, 21d", "value": 27.848, "unit": "G"},
      {"measurement": "Weight, group average", "setting": "[3]; 2nd dose (100 μM) female, 28d", "value": 28.604, "unit": "G"},
      {"measurement": "Weight, group average", "setting": "[3]; 2nd dose (100 μM) female, initial", "value": 27.71, "unit": "G"},
      {"measurement": "Weight, group average", "setting": "[3]; 2nd dose (100 μM) male, 7d", "value": 32.196, "unit": "G"},
      {"measurement": "Weight, group average", "setting": "[3]; 2nd dose (100 μM) male, 14d", "value": 33.33, "unit": "G"},
      {"measurement": "Weight, group average", "setting": "[3]; 2nd dose (100 μM) male, 21d", "value": 33.42, "unit": "G"},
      {"measurement": "Weight, group average", "setting": "[3]; 2nd dose (100 μM) male, 28d", "value": 34.952, "unit": "G"},
      {"measurement": "Weight, group average", "setting": "[3]; 2nd dose (100 μM) male, initial", "value": 32.388, "unit": "G"},
      {"measurement": "Weight, group average", "setting": "[3]; 3rd dose (50 μM) female, 7d", "value": 23.104, "unit": "G"},
      {"measurement": "Weight, group average", "setting": "[3]; 3rd dose (50 μM) female, 14d", "value": 23.97, "unit": "G"},
      {"measurement": "Weight, group average", "setting": "[3]; 3rd dose (50 μM) female, 21d", "value": 24.27, "unit": "G"},
      {"measurement": "Weight, group average", "setting": "[3]; 3rd dose (50 μM) female, 28d", "value": 25.092, "unit": "G"},
      {"measurement": "Weight, group average", "setting": "[3]; 3rd dose (50 μM) female, initial", "value": 24.338, "unit": "G"},
      {"measurement": "Weight, group average", "setting": "[3]; 3rd dose (50 μM) male, 7d", "value": 35.528, "unit": "G"},
      {"measurement": "Weight, group average", "setting": "[3]; 3rd dose (50 μM) male, 14d", "value": 36.106, "unit": "G"},
      {"measurement": "Weight, group average", "setting": "[3]; 3rd dose (50 μM) male, 21d", "value": 36.43, "unit": "G"},
      {"measurement": "Weight, group average", "setting": "[3]; 3rd dose (50 μM) male, 28d", "value": 38.348, "unit": "G"},
      {"measurement": "Weight, group average", "setting": "[3]; 3rd dose (50 μM) male, initial", "value": 35.076, "unit": "G"},
      {"measurement": "abnormalities in the behavior of the mice", "setting": "CD1 mice [4]", "value": "no abnormalities"},
      {"measurement": "IC50", "setting": "HeLa cell lines", "value": 149, "unit": "µM"}
    ]},
    {"molecule": "CC(=O)O[C@@H]1[C@@H]2C(=O)N(Cc3ccccc3)C(=O)[C@@H]2C=C[C@H]1Cl", "note": "[compound 4]", "values": [
      {"measurement": "weight of nude mice", "setting": "[2]; [5]", "value": "29.17 and 26.62 and 29.35 and 24.80 and 28.90"},
      {"measurement": "weight of nude mice", "setting": "[2]; [6]", "value": "33.10 and 30.76 and 32.46 and 25.32 and 30.89"},
      {"measurement": "weight of nude mice", "setting": "[2]; [7]", "value": "31.71 and 30.85 and 31.40 and 27.13 and 31.24"},
      {"measurement": "weight of nude mice", "setting": "[2]; [8]", "value": "35.20 and 32.46 and 31.25 and 28.34 and 32.30"},
      {"measurement": "weight of nude mice", "setting": "[2]; 20 days, Ex = dead", "value": "37.08 and Ex"},
      {"measurement": "weight of nude mice", "setting": "[2]; 30 days, Ex = dead", "value": "35.54 and Ex"},
      {"measurement": "weight of nude mice", "setting": "[2]; 40 days, treatment discontinued on day 30, Ex = dead", "value": "34.30 and Ex"},
      {"measurement": "weight of nude mice", "setting": "[2]; 50 days, treatment discontinued on day 30, Ex = dead", "value": "30.41 and Ex"},
      {"measurement": "weight of nude mice", "setting": "[2]; 60 days, treatment discontinued on day 30, Ex = dead", "value": "32.95 and Ex"},
      {"measurement": "survival of tumor-bearing nude mice", "setting": "[2]; [9]", "value": "became Ex after 15 days; also recorded: found Ex in their cages after the 3rd dose; also recorded: four nude mice were dead; also recorded: showed Ex after the third dose"},
      {"measurement": "weight of nude mice", "setting": "[2]; [10]", "value": "24.57 and 22.94 and 24.50 and 23.01 and 24.01"},
      {"measurement": "abnormalities in the behavior of the mice", "setting": "CD1 mice [4]", "value": "no abnormalities"},
      {"measurement": "IC50", "setting": "HeLa cell lines", "value": 141, "unit": "µM"}
    ]}
  ]
}
